Results published in PubChem BioAssay AID248 (DTP/NCI, 2004).
Several values for one entry are separate records, joined by “and”; a condition that tells them apart may be missing. Equal entries are not always repeated. Inconclusive results and toxic doses are left out.

System: L1210 leukemia ip in BDF1 mice, survival T/C
Assay: NCI In Vivo Anticancer Drug Screen. Data for tumor model L1210 Leukemia (intraperitoneal) in B6D2F1 (BDF1) mice
Settings: endpoint: mean survival time, higher = longer survival
How it was run: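 Tumor was transplanted into mice, which were then dosed with test compound or vehicle alone. Survival was recorded for each group, and the treated figure was expressed relative to the control figure.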

[1] = dose: 100.0 mg/kg/injection, schedule: Q04DX003 (ip), vehicle: saline with Tween-80
[2] = dose: 200.0 mg/kg/injection, schedule: Q04DX003 (ip), vehicle: saline with Tween-80
[3] = dose: 400.0 mg/kg/injection, schedule: Q04DX003 (ip), vehicle: saline with Tween-80
[4] = dose: 100.0 mg/kg/injection, schedule: Q04DX003 (ip), vehicle: Klucel (hydroxypropylcellulose) (HPC)
[5] = dose: 200.0 mg/kg/injection, schedule: Q04DX003 (ip), vehicle: Klucel (hydroxypropylcellulose) (HPC)
[6] = dose: 400.0 mg/kg/injection, schedule: Q04DX003 (ip), vehicle: Klucel (hydroxypropylcellulose) (HPC)

In the case of CNC(=S)NC1CC(OC2CC(O)(C(C)=O)Cc3c(O)c4c(c(O)c32)C(=O)c2c(OC)cccc2C4=O)OC(C)C1O (centres undefined), the T/C (dose: 2.0 mg/kg/injection, schedule: Q04DX003 (ip), vehicle: water) is reported as 107 % of control, the T/C (dose: 3.12 mg/kg/injection, schedule: Q01DX009 (ip), vehicle: saline with Tween-80) is reported as 115 % of control and the T/C (dose: 4.0 mg/kg/injection, schedule: Q04DX003 (ip), vehicle: water) is reported as 106 % of control. For the same molecule, the T/C (dose: 6.25 mg/kg/injection, schedule: Q01DX009 (ip), vehicle: saline with Tween-80) was 120 % of control, the T/C (dose: 8.0 mg/kg/injection, schedule: Q04DX003 (ip), vehicle: water) was 107 % of control and the T/C (dose: 12.5 mg/kg/injection, schedule: Q04DX003 (ip), vehicle: saline with Tween-80) was 108 % of control. For the same molecule, the T/C (dose: 16.0 mg/kg/injection, schedule: Q04DX003 (ip), vehicle: water) was 109 % of control and 110 % of control, the T/C (dose: 25.0 mg/kg/injection, schedule: Q04DX003 (ip), vehicle: saline with Tween-80) was 124 % of control and the T/C (dose: 32.0 mg/kg/injection, schedule: Q04DX003 (ip), vehicle: water) was 116 % of control. The T/C (dose: 50.0 mg/kg/injection, schedule: Q04DX003 (ip), vehicle: saline with Tween-80) was 121 % of control, the T/C (dose: 64.0 mg/kg/injection, schedule: Q04DX003 (ip), vehicle: water) was 110 % of control and the T/C (dose: 125.0 micrograms/kg/injection, schedule: Q04DX003 (ip), vehicle: water) was 96 % of control. The T/C (dose: 250.0 micrograms/kg/injection, schedule: Q04DX003 (ip), vehicle: water) was 103 % of control, the T/C (dose: 500.0 micrograms/kg/injection, schedule: Q04DX003 (ip), vehicle: water) was 102 % of control and the T/C (dose: 1000.0 micrograms/kg/injection, schedule: Q04DX003 (ip), vehicle: water) was 103 % of control. The T/C (dose: 2000.0 micrograms/kg/injection, schedule: Q04DX003 (ip), vehicle: water) was 98 % of control.
In the case of O=C(O)C1C2CCC(O2)C1C(=O)O (centres undefined), the T/C (dose: 100.0 mg/kg/injection, schedule: Q01DX001 (ip), vehicle: carboxymethylcellulose (CMC)) is reported as 91 % of control, the T/C [1] is reported as 100 % of control and the T/C (dose: 200.0 mg/kg/injection, schedule: Q01DX001 (ip), vehicle: carboxymethylcellulose (CMC)) is reported as 88 % of control. For the same molecule, the T/C [2] was 96 % of control and the T/C [3] was 102 % of control.
For COC(=O)Nc1nc2ccc(Br)cc2[nH]1, the T/C (dose: 100.0 mg/kg/injection, schedule: Q01DX009 (ip), vehicle: Klucel (hydroxypropylcellulose) (HPC)) was 100 % of control, the T/C [4] was 92 % of control and the T/C (dose: 200.0 mg/kg/injection, schedule: Q01DX009 (ip), vehicle: Klucel (hydroxypropylcellulose) (HPC)) was 100 % of control. The T/C [5] was 96 % of control, the T/C (dose: 400.0 mg/kg/injection, schedule: Q01DX009 (ip), vehicle: Klucel (hydroxypropylcellulose) (HPC)) was 109 % of control and the T/C [6] was 94 % of control.
In the case of CC(=O)OC1CCC(NC(=O)N(CCCl)N=O)CC1 (centres undefined), the T/C (dose: 15.0 mg/kg/injection, schedule: Q01DX001 (ip), vehicle: other) is reported as 225 % of control, the T/C (dose: 30.0 mg/kg/injection, schedule: Q01DX001 (ip), vehicle: other) is reported as 352 % of control and the T/C (dose: 62.0 mg/kg/injection, schedule: Q01DX001 (ip), vehicle: other) is reported as 244 % of control.
With C/C=C(/C(=O)c1ccc(-c2ccccc2)cc1)c1ccccc1 the T/C (dose: 100.0 mg/kg/injection, schedule: Q01DX009 (ip), vehicle: saline with Tween-80) was 105 % of control, the T/C [1] was 95 % of control and the T/C (dose: 200.0 mg/kg/injection, schedule: Q01DX009 (ip), vehicle: saline with Tween-80) was 94 % of control. The T/C [2] was 89 % of control, the T/C (dose: 400.0 mg/kg/injection, schedule: Q01DX009 (ip), vehicle: saline with Tween-80) was 90 % of control and the T/C [3] was 94 % of control.
With Nc1ncnc2nc(N=Nc3ccc(S(N)(=O)=O)cc3)[nH]c12 the T/C [4] was 108 % of control, the T/C [5] was 102 % of control and the T/C [6] was 100 % of control.
